Assay results taken from patent EP0610032A1, “Acetanilide derivatives” (ZENECA LIMITED, priority 1993, dated 1994).

Legend:
5-LO [1] = target: T1, 5-LO (Homo sapiens, UniProt P09917); experiment: Test a): in vitro heparinised human blood challenged with calcium ionophore A23187, radioimmunoassay of LTB₄; assay type: cell-based; conditions: A23187 challenge, read-out: IC₅₀ (LTB₄)
T1 construct: incubating a test compound with heparinised human blood, prior to challenge with the calcium ionophore A23187; endogenous in cells; host or cells: heparinised human whole blood (blood cells)
T1 sequence (P09917 1-674): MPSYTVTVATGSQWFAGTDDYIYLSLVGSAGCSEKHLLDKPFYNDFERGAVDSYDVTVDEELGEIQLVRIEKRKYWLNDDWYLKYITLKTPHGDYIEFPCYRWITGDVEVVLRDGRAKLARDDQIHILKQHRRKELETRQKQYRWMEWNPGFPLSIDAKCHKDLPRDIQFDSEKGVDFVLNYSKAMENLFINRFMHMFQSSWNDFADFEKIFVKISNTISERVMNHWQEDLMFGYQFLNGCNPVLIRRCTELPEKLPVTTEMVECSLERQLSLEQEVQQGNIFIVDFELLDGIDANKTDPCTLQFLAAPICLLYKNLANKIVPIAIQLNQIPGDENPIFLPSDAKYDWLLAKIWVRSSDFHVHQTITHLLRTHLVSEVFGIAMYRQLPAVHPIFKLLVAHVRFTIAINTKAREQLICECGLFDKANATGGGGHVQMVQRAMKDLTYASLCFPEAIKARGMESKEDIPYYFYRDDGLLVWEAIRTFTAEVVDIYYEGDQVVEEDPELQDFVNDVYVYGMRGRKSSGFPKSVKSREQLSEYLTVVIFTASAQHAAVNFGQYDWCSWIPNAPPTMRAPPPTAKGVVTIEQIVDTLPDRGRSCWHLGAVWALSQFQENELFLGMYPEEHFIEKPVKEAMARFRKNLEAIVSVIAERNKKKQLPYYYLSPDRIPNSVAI
Excerpt: As stated previously, the compounds of the formula I are inhibitors of the enzyme 5-LO. […] J. Pharmacol., 1985, 84, 34P) which involves the use of a protein-LTB₄ conjugate produced using the procedure of Young et alia (Prostaglandins, 1983, 26(4), 605-613). The effects of a test compound on the enzyme cyclooxygenase (which is involved in the alternative metabolic pathway for arachidonic acid and gives rise to prostaglandins, thromboxanes and related metabolites) may be measured at the same time using the specific radioimmunoassay for thromboxane B₂(TxB₂) described by Carey and Forder (see above). This test provides an indication of the effects of a test compound against 5-LO and also cyclooxygenase in the presence of blood cells and proteins. It permits the selectivity of the inhibitory effect on 5-LO or cyclooxygenase to be assessed. • b) An ex vivo assay system, which is a variation of test a) above, involving administration to a group of rats of a test compound (usually orally as the suspension produced when a solution of the test compound in dimethylsulphoxide is added to carboxymethylcellulose), blood collection, heparinisation, challenge with A23187 and radioimmunoassay of LTB₄ and TxB₂. […]

5-LO [2] = target: T2, 5-LO (Rattus norvegicus, UniProt P12527); experiment: Test c): in vivo zymosan-induced LTB₄ liberation in subcutaneous air pouch of male rats; conditions: oral, 3 hours, read-out: oral ED₅₀(LTB₄)
T2 construct: liberation of LTB₄ induced by zymosan within an air pouch generated within the subcutaneous tissue of the back of male rats; from tissue; host or cells: subcutaneous air pouch of male rats (in vivo)
T2 sequence (P12527 1-673): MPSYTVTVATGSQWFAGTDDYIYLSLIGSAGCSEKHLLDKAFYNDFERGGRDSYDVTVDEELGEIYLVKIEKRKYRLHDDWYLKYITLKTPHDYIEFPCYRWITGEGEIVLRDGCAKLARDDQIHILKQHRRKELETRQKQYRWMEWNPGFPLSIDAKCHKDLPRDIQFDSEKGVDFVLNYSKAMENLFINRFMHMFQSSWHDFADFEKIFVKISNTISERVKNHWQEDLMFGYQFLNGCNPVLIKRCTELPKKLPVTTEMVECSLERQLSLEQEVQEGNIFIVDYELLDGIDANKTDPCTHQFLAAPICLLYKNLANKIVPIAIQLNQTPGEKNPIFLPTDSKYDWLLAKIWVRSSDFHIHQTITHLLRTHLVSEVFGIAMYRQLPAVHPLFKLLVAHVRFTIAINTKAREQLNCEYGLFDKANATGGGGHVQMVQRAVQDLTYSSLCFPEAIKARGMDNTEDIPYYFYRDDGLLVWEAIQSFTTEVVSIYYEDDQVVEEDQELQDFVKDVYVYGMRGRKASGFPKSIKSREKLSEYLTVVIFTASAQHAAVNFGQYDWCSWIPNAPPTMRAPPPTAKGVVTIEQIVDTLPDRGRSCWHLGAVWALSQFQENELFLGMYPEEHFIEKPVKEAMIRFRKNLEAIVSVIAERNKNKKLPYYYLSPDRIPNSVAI
Experimental: This test provides an indication of the bioavailability of a test compound as an inhibitor of 5-LO or cyclooxygenase. • c) An in vivo system involving measuring the effects of a test compound administered orally against the liberation of LTB₄ induced by zymosan within an air pouch generated within the subcutaneous tissue of the back of male rats. The rats are anaesthetised and air pouches are formed by the injection of sterile air (20ml). A further injection of air (10ml) is similarly given after 3 days. At 6 days after the initial air injection the test compound is administered (usually orally as the suspension produced when a solution of the test compound in dimethylsulphoxide is added to hydroxypropylmethylcellulose), followed by the intrapouch injection of zymosan (1ml of a 1% suspension in physiological saline). After 3 hours the rats are killed, the air pouches are lavaged with physiological saline, and the specific radioimmunoassay described above is used to assay LTB₄ in the washings. This test provides an indication of inhibitory effects against 5-LO in an inflammatory milieu.

IC50 (5-LO [1]) [nM]	ED50 (5-LO [2]) [mg/kg]	Structure (SMILES)
< 40	~1.5	CC(=O)N(C)c1ccc(Sc2cc([C@@]3(C)COC(C)(C)O3)cs2)cc1 [Example 1, N-methyl-4'-{4-[(4S)-2,2,4-trimethyl-1,3-dioxolan-4-yl]thien-2-ylthio}acetanilide]
70	–	CC(=O)N(C)c1ccc(Sc2ncc([C@@]3(C)COC(C)(C)O3)s2)cc1 [Example 2, N-methyl-4'-{5-[(4R)-2,2,4-trimethyl-1,3-dioxolan-4-yl]thiazol-2-ylthio}acetanilide]
